Test results as given in publication PMC10983001, “Development of Cytotoxic GW7604-Zeise’s Salt Conjugates as Multitarget Compounds with Selectivity for Estrogen Receptor- Positive Tumor Cells” (Journal of Medicinal Chemistry, 2024).

Key:
[1] = biological target: T1, human recombinant COX-2 (Homo sapiens, UniProt P35354); format: biochemical; conditions: incubation 10 min
T1 construct: purchased Cayman Chemicals
T1 sequence (P35354 18-604): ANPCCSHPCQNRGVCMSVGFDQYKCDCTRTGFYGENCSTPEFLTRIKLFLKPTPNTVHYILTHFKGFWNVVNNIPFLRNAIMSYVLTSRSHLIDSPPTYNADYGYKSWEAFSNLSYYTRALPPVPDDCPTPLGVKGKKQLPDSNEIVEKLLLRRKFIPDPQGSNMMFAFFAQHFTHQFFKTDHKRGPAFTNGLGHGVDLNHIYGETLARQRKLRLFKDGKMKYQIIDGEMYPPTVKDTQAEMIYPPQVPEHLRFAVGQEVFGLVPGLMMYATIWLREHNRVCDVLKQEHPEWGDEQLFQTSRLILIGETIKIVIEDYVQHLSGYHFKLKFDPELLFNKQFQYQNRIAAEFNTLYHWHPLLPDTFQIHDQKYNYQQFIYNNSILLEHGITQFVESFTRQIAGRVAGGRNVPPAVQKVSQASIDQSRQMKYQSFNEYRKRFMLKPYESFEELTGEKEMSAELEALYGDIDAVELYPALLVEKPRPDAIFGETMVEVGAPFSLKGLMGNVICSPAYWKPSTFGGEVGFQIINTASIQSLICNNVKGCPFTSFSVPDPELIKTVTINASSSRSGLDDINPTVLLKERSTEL
Procedure: (§1) COX-1/2 inhibition was evaluated in an established assay on isolated isoenzymes. After incubation with the drugs (concentration: 20 μM) for 10 min, the remaining COX activity was measured by an enzyme-linked immunosorbent assay (ELISA).
(§2) The incubation time of the compounds with the respective isoenzymes was exactly 10 min. The results are presented as the mean ± SEM of three independent experiments, with two replicates of each experiment. […] Graphs were drawn using GraphPad Prism 8.0.

[2] = biological target: T2, human recombinant COX-1 (Homo sapiens, UniProt P23219); format: biochemical; conditions: incubation 10 min
T2 construct: purchased Cayman Chemicals
Procedure: as §1, §2

T2 sequence (P23219 24-599): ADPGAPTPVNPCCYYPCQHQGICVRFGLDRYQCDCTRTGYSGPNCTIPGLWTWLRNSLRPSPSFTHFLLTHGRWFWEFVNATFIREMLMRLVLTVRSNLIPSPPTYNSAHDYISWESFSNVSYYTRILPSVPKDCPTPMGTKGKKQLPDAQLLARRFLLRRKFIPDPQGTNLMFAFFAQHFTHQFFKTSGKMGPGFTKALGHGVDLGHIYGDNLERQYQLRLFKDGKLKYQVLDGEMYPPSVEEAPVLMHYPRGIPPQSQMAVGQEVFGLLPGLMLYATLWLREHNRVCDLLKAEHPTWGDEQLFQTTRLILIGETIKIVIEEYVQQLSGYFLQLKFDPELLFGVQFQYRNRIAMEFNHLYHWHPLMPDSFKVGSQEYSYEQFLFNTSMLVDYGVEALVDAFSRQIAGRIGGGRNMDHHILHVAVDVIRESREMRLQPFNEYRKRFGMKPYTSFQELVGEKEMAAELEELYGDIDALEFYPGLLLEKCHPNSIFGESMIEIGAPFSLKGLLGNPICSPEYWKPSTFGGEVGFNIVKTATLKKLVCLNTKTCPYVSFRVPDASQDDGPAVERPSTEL

## CCC(=C(c1ccc(O)cc1)c1ccc(C=CC(=O)OCCC[CH]2[CH2][Pt-]2([Cl])([Cl])[Cl])cc1)c1ccccc1.[K+] (mixture of isomers) [GW7604-Pent-PtCl3, Potassium trichlorido[η^2-(pent-4-en-1-yl (E)-3-(4-((E/Z)-1-(4-hydroxyphenyl)-2-phenylbut-1-en-1-yl)phenyl)acrylate)]platinate(II)]
[1]; 0.1–20 μM
  IC50: 1820 nM
[1]
  concentration at which maximum activity is reached, COX-2: 10 µM
[2]; 0.1–20 μM
  IC50: 1700 nM
[2]
  concentration at which maximum activity is reached, COX-1: 10 µM
